Measured values published in US6855730B2, “3-methylidenyl-2-indolinone modulators of protein kinase” (Sugen, Inc., priority 1998, dated 2005).
pIC50: −log10 of the molar value. Counter-ions that a name gives are not always drawn.

Molecular target: T1, chimeric receptor containing the EGFR extracellular domain and intracellular HER2 kinase domain (Homo sapiens, UniProt P04626)
T1 construct: fused on or other part: EGFR ectodomain + HER2 intracellular part, ATP-site indolinones: HER2's kinase
Experiment: EGF Receptor-HER2 chimeric receptor assay in whole cells (ELISA)
Type: cell-based
Details: read-out: HER-2 kinase IC50
Method: EGF Receptor-HER2 Chimeric Receptor Assay In Whole Cells.
HER2 kinase activity in whole EGFR-NIH3T3 cells are measured as described below:
• a. […] 05-101 (UBI) (a monoclonal antibody recognizing an EGFR extracellular domain). • c. Anti-phosphotyrosine antibody (anti-Ptyr) (polyclonal) (see, Fendley, et al., supra). • d. Detection antibody: Goat anti-rabbit IgG horseradish peroxidase conjugate, TAGO, Inc., Burlingame, Calif. • e. TBST buffer:
• h. Stock reagents of:
Pre-coat ELISA Plate • 1. […] Coated plates are good for up to 10 days when stored at 4° C. • 2. On day of use, remove coating buffer and replace with 100 μl blocking buffer (5% Carnation Instant Non-Fat Dry Milk in PBS). Incubate the plate, shaking, at room temperature (about 23° C. to 25° C.) for 30 minutes. Just prior to use, remove blocking buffer and wash plate 4 times with TBST buffer.
Seeding Cells • 1. An NIH3T3 cell line overexpressing a chimeric receptor containing the EGFR extracellular domain and intracellular HER2 kinase domain can be used for this assay. • 2. Choose dishes having 80-90% confluence for the experiment. Trypsinize cells and stop reaction by adding 10% fetal bovine serum. Suspend cells in DMEM medium (10% CS DMEM medium) and centrifuge once at 1500 rpm, at room temperature for 5 minutes. • 3. Resuspend cells in seeding medium (DMEM, 0.5% bovine serum), and count the cells using trypan blue. Viability above 90% is acceptable. Seed cells in DMEM medium (0.5% bovine serum) at a density of 10,000 cells per well, 100 μl per well, in a 96 well microtiter plate. Incubate seeded cells in 5% CO2. at 37° C. for about 40 hours.
Assay Procedures • 1. Check seeded cells for contamination using an inverted microscope. Dilute drug stock (10 mg/ml in DMSO) 1:10 in DMEM medium, then transfer 5 μl to a […] well for a final drug dilution of 1:200 and a final DMSO concentration of 1%. Control wells receive DMSO alone. Incubate in 5% CO2 at 37° C. for two hours. • 2. Prepare EGF ligand: dilute stock EGF in DMEM so that upon transfer of 10 μl dilute EGF (1:12 dilution), 100 nM final concentration is attained. • 3. Prepare fresh HNTG* sufficient for 100 μl per well, and place on ice.
• 4. After 120 minutes incubation with drug, add prepared […] ligand to cells, 10 μl per well, to a final concentration of 100 nM. Control wells receive DMEM alone. Incubate with shaking, at room temperature, for 5 minutes. • 5. Remove drug, EGF, and DMEM. Wash cells twice with PBS. Transfer HNTG* to cells, 100 μl per well. Place on ice for 5 minutes. Meanwhile, remove blocking buffer from other ELISA plate and wash with TBST as described above. • 6. With a pipette tip securely fitted to a micropipettor, scrape cells from plate and homogenize cell material by repeatedly aspirating and dispensing the HNTG* lysis buffer. Transfer lysate to a coated, blocked, and washed ELISA plate. Incubate shaking at room temperature for one hour. • 7. Remove lysate and wash 4 times with TBST. Transfer freshly diluted anti-Ptyr antibody to ELISA plate at 100 μl per well. Incubate shaking at room temperature for 30 minutes in the presence of the anti-Ptyr antiserum (1:3000 dilution in TBST). • 8. Remove the anti-Ptyr antibody and wash 4 times with TBST. Transfer the freshly diluted TAGO anti-rabbit IgG antibody to the ELISA plate at 100 μl per well. Incubate shaking at room temperature for 30 minutes (anti-rabbit IgG antibody: 1:3000 dilution in TBST). • 9. Remove TAGO detection antibody and wash 4 times with TBST. Transfer freshly prepared ABTS/H2O2 solution to ELISA plate, 100 μl per well. Incubate shaking at room temperature for 20 minutes. (ABTS/H2O2 solution: 1.0 μl 30% H2O2 in 10 ml ABTS stock). • 10. Stop reaction by adding 50 μl 5N H2SO4 (optional), and determine O.D. at 410 nm. • 11. The maximal phosphotyrosine signal is determined by subtracting the value of the negative controls from the positive controls. […]

T1 sequence (P04626 720-1255 limits assumed, change not shown): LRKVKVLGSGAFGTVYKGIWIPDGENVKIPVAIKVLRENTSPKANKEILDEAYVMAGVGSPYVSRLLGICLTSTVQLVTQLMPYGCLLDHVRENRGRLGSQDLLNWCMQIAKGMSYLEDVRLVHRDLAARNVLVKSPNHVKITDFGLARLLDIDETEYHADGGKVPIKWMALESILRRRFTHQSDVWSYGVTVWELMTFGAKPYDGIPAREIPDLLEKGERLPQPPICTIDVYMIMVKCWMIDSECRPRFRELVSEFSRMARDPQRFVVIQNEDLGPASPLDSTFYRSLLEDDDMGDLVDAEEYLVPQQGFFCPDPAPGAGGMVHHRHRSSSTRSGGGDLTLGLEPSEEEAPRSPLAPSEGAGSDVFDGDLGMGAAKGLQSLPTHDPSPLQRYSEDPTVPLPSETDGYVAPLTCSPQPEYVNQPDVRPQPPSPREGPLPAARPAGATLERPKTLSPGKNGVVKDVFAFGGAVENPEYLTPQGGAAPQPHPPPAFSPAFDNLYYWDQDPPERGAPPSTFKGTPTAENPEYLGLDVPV

Row | pIC50 | Compound
1 | < 4.00 | COc1ccc(C=C2C(=O)Nc3cc(NC(C)=O)ccc32)cc1-c1cccc(NC(C)=O)c1 (mixture of isomers) [Example 63, N-[3-(3′-Acetylamino-6-methoxybiphenyl-3-ylmethylene)-2-oxo-2,3-dihydro-1H-indol-6-yl]-acetamide]
2 | < 4.00 | COc1cc(/C=C2/C(=O)Nc3ccccc32)c(-c2ccc3ccccc3c2)cc1OC [Example 62, 3-(4,5-Dimethoxy-2-naphthalen-2-ylbenzylidene)-1,3-dihydroindol-2-one]
3 | < 4.00 | COc1ccc2c(c1)NC(=O)/C2=C/c1ccc(OC)c(-c2ccsc2)c1 [Example 64, 6-Methoxy-3-(4-methoxy-3-thiophen-3-ylbenzylidene)-1,3-dihydroindol-2-one]
4 | < 4.30 | O=C1Nc2ncccc2/C1=C\c1ccc2c(c1)CCO2 [Example 73, 3-(2,3-Dihydrobenzofuran-5-ylmethylene)-1,3-dihydropyrrolo[2,3-b]pyridin-2-one]
5 | < 4.00 | COc1ccc(/C=C2/C(=O)Nc3ccc(Cl)cc32)cc1-c1cccs1 [Example 59, 5-chloro-3-(4-Methoxy-3-thiophen-2-ylbenzylidene)-1,3-dihydroindol-2-one]
6 | < 4.00 | COc1ccc(/C=C2/C(=O)Nc3ccccc32)cc1-c1ccccc1 [Example 65, 3-(6-Methoxybiphenyl-3-ylmethylene)-1,3-dihydroindol-2-one]
7 | < 4.00 | Cc1c(/C=C2\C(=O)Nc3ccc(C(=O)O)cc32)[nH]c2ccccc12 [Example 156, 3-(3-Methyl-1H-indol-2-ylmethylene)-2-oxo-2,3-dihydro-1H-indole-5-carboxylic acid (piperidine salt)]
8 | < 4.00 | COc1cccc(-c2cc(OC)c(OC)cc2/C=C2/C(=O)Nc3ccc(Cl)cc32)c1 [Example 61, 5-Chloro-3-(4,5-3′-Trimethoxybiphenyl-2-ylmethylene)-1,3-dihydroindol-2-one]
9 | < 4.00 | CCOc1cccc(-c2cc(OC)c(OC)cc2/C=C2/C(=O)Nc3ccccc32)c1 [Example 58, 3-(3′-Ethoxy-4,5-dimethoxybiphenyl-2-ylmethylene)-1,3-dihydroindol-2-one]
10 | < 4.00 | Cc1cc(CCC(=O)O)c(/C=C2\C(=O)Nc3cc(-c4ccc(F)cc4)ccc32)[nH]1 [Example 107, 3-{2-[6-(4-Fluorophenyl)-2-oxo-1,2-dihydroindol-3-ylidenemethyl]-5-methyl-1H-pyrrol-3-yl}propionic acid]
11 | < 4.00 | Cc1cccc2c1/C(=C/c1cc3ccccc3[nH]1)C(=O)N2 [Example 166, 3-(1H-indol-2-ylmethylene)-4-methyl-1,3-dihydro-indol-2-one]

More lines, now with the values behind:

Row | Compound | pIC50
12 | COc1c(C(C)C)cc(/C=C2/C(=O)Nc3cc(O)ccc32)cc1C(C)C [Example 4, 3-(3,5-Diisopropyl-4-methoxybenzylidene)-6-hydroxy-1,3-dihydroindol-2-one] | 5.24
13 | COc1ccc(/C=C2/C(=O)Nc3ccc(Br)cc32)cc1-c1ccccc1 [Example 13, 5-Bromo-3-(6-methoxybiphenyl-3-ylmethylene)-1,3-dihydroindol-2-one] | < 4.00
14 | COc1ccc(/C=C2/C(=O)Nc3ccccc32)cc1C(C)C [Example 7, 3-(3-Isopropyl-4-methoxybenzylidene)-1,3-dihydroindol-2-one] | < 4.00
15 | COc1ccc(/C=C2/C(=O)Nc3ccccc32)cc1C1CCCC1 [Example 10, 3-(3-Cyclopentyl-4-methoxybenzylidene)-1,3-dihydroindol-2-one] | 4.34
16 | COc1c(C(C)C)cc(/C=C2/C(=O)Nc3cc(NC(=O)OC(C)(C)C)ccc32)cc1C(C)C [Example 52, [3-(3,5-Diisopropyl-4-methoxybenzylidene)-2-oxo-2,3-dihydro-1H-indol-6-yl]-carbamic acid tert-butyl ester] | 4.14
17 | COc1c(C)cc(/C=C2/C(=O)Nc3ccc(Cl)cc32)cc1C [Example 21, 5-Chloro-3-(4-methoxy-3,5-dimethylbenzylidene)-1,3-dihydroindol-2-one] | 4.93
18 | COc1cc(C)c(C=C2C(=O)Nc3ccc(Cl)cc32)cc1C(C)C [Example 9, 5-Chloro-3-(5-isopropyl-4-methoxy-2-methylbenzylidene)-1,3-dihydroindol-2-one] | < 4.00
19 | COc1c(C(C)C)cc(/C=C2\C(=O)Nc3cccc(C)c32)cc1C(C)C [Example 53, 3-(3,5-Diisopropyl-4-methoxybenzylidene)-4-methyl-1,3-dihydroindol-2-one] | 4.09
20 | COc1ccc(/C=C2/C(=O)Nc3ccc(F)cc32)cc1C(C)C [Example 44, 5-Fluoro-3-(3-isopropyl-4-methoxybenzylidene)-1,3-dihydroindol-2-one] | 4.27
21 | CC(=O)Nc1ccc2c(c1)NC(=O)/C2=C\c1ccc2c(c1)CCC(C)(C)O2 [Example 33, N-[3-(2,2-Dimethylchroman-6-ylmethylene)-2-oxo-2,3-dihydro-1H-indol-6-yl]-acetamide] | 4.69
22 | O=C1Nc2ccc(Cl)cc2/C1=C\c1ccc2c(c1)CCO2 [Example 14, 5-Chloro-3-(2,3-dihydro-benzofuran-5-ylmethylene)-1,3-dihydroindol-2-one] | 4.64
23 | COc1ccc(/C=C2/C(=O)Nc3ccc(F)cc32)cc1C1CCCCC1 [Example 43, 3-(3-Cyclohexyl-4-methoxybenzylidene)-5-fluoro-1,3-dihydroindol-2-one] | 4.28
24 | COc1ccc(/C=C2/C(=O)Nc3ccc(F)cc32)cc1-c1ccccc1 [Example 37, 5-Fluoro-3-(6-methoxybiphenyl-3-ylmethylene)-1,3-dihydroindol-2-one] | 4.65
25 | CC1(C)CCc2cc(C=C3C(=O)Nc4ccc(Br)cc43)ccc2O1 (racemic) [Example 34, 5-Bromo-3-(2,2-dimethylchroman-6-ylmethylene)-1,3-dihydroindol-2-one] | < 4.00
26 | CC(=O)Nc1ccc2c(c1)NC(=O)/C2=C/c1ccc(OCCN2CCOCC2)c(C2CCCCC2)c1 [Example 16, N-{3-[3-Cyclohexyl-4-(2-morpholin-4-ylethoxy)-benzylidene]-2-oxo-2,3-dihydro-1H-indol-6-yl}-acetamide] | 5.00
27 | COc1ccc(/C=C2/C(=O)Nc3ccccc32)cc1C1CCCCC1 [Example 12, 3-(3-Cyclohexyl-4-methoxybenzylidene)-1,3-dihydroindol-2-one] | < 4.00
28 | COc1cc(C)c(/C=C2/C(=O)Nc3ncccc32)cc1C(C)C [Example 45, 3-(5-Isopropyl-4-methoxy-2-methylbenzylidene)-1,3-dihydro-pyrrolo[2,3-b]pyridin-2-one] | 4.24
29 | COc1c(C)cc(/C=C2/C(=O)Nc3ncccc32)cc1C [Example 56, 3-(4-Methoxy-3,5-dimethylbenzylidene)-1,3-dihydropyrrolo[2,3-b]pyridin-2-one] | 4.02
30 | COc1cc(/C=C2/C(=O)Nc3ccccc32)c(-c2cccs2)cc1OC [Example 39, 3-(4,5-Dimethoxy-2-thiophen-2-ylbenzylidene)-1,3-dihydroindol-2-one] | 4.47
31 | COc1ccc(/C=C2/C(=O)Nc3ccc(F)cc32)cc1C1CCCC1 [Example 11, 3-(3-Cyclopentyl-4-methoxybenzylidene)-5-fluoro-1,3-dihydroindol-2-one] | 4.24
32 | COc1ccc(/C=C2/C(=O)Nc3ccc(Cl)cc32)cc1C1CCCCC1 [Example 51, 5-Chloro-3-(3-cyclohexyl-4-methoxybenzylidene)-1,3-dihydroindol-2-one] | 4.14
